In patent publication US8871753B2, “Macrocyclic compounds and their use as kinase inhibitors” (Incyte Corporation, priority 2008, dated 2014):
Counter-ions that a name gives are not always drawn.

What was measured:
Assay type in all cases: biochemical
[1] = molecular target: T1, Recombinant Human Anaplastic Lymphoma Kinase (Homo sapiens, UniProt Q9UM73); experiment: ALK HTRF kinase assay; settings: for IC50: Table B1, cells without percent sign; for ALK % of inhibition at a concentration of 500 nM or 1 mM: compound at a concentration of 500 nM or 1 mM (not specified), cells shown as percentage
T1 construct: purchased Invitrogen, Carlsbad, Calif
Method in brief: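 Readout was HTRF between a Eu-W1024 anti-phosphotyrosine antibody and streptavidin-APC bound to biotinylated peptide phosphorylated by recombinant human ALK. IC50 values came from a four-parameter logistic fit.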

[2] = molecular target: T2, human JAK2 (a.a. 828-1132) (Homo sapiens, UniProt O60674); experiment: In vitro JAK kinase assay (HTRF, phosphorylation of a biotinylated peptide), JAK2; settings: Table B1
T2 construct: JAK2 (a.a. 828-1132); His tag (N); made in house; host or cells: insect cells (baculovirus)
Method in brief: (§1)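 Kinase activity was measured as phosphorylation of a biotinylated peptide, with ATP at 90 μM for JAK1, 30 μM for JAK2 and 3 μM for JAK3. Reactions ran 1 hr at room temperature, were stopped with EDTA plus SA-APC and Eu-Py20, and were read by HTRF after 40 minutes of antibody binding.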

TYK2 = TYK2 (Homo sapiens, UniProt P29597); experiment: TYK2 kinase inhibition (Table A1); settings: Table B1
[3] = molecular target: T3, human JAK3 (a.a. 781-1124) (Homo sapiens, UniProt P52333); experiment: In vitro JAK kinase assay (HTRF, phosphorylation of a biotinylated peptide), JAK3; settings: Table B1
T3 construct: JAK3 (a.a. 781-1124); His tag (N); made in house; host or cells: insect cells (baculovirus)
Method in brief: as §1

[4] = molecular target: T4, human JAK1 (a.a. 837-1142) (Homo sapiens, UniProt P23458); experiment: In vitro JAK kinase assay (HTRF, phosphorylation of a biotinylated peptide), JAK1; settings: Table B1; read-out: JAK1 IC50
T4 construct: human JAK1 (a.a. 837-1142); His tag (N); made in house; host or cells: insect cells (baculovirus)
Method in brief: as §1

T1 sequence (Q9UM73 19-1620): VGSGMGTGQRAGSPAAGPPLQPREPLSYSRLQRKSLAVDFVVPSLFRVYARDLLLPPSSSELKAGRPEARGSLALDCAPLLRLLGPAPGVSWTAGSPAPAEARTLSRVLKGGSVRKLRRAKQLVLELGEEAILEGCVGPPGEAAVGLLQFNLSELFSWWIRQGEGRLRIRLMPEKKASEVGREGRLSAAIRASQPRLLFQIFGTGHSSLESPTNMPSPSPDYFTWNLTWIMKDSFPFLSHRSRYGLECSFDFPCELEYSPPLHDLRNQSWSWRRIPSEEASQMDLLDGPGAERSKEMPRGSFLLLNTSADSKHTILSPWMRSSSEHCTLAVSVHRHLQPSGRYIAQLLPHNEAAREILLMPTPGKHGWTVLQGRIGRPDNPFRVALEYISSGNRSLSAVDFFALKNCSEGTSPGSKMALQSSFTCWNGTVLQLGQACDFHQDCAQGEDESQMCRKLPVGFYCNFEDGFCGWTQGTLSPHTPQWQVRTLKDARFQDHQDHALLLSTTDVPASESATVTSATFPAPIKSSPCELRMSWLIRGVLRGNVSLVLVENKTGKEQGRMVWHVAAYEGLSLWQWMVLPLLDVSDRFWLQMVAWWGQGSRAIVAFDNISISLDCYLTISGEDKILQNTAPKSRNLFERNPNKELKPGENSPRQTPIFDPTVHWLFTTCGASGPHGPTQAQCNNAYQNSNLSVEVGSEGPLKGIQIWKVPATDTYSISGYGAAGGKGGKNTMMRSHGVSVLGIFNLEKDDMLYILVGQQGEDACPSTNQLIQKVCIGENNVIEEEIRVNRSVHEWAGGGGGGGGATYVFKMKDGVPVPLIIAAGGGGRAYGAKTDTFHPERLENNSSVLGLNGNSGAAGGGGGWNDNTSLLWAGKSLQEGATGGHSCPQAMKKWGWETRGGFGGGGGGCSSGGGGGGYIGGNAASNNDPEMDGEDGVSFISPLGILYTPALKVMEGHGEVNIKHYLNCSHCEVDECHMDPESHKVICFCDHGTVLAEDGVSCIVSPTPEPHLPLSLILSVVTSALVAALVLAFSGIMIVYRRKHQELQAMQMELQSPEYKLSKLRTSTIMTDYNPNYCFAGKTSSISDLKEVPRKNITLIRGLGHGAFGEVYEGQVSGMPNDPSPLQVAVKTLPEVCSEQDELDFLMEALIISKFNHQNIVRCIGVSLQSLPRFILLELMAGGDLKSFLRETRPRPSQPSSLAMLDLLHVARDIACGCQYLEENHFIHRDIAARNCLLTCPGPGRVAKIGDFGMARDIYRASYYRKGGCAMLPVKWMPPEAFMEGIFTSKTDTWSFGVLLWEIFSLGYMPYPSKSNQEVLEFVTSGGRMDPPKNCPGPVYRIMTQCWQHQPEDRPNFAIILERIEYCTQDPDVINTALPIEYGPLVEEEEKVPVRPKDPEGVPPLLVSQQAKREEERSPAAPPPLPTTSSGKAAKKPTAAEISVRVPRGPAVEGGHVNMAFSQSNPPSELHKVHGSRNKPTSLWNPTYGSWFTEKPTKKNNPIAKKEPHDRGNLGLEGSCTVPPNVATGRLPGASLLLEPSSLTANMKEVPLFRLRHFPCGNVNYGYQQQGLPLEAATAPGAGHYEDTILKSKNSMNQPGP
T3 sequence (P52333 781-1124): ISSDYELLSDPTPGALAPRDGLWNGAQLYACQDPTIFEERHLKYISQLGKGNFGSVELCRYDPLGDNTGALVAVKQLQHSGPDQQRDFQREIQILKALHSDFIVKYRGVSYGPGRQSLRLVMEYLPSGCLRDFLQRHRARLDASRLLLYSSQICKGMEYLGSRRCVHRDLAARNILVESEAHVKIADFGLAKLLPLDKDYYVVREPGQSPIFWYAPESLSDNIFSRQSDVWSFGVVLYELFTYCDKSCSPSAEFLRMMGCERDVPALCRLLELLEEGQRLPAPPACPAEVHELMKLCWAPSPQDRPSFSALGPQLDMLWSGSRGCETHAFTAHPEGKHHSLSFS
T2 sequence (O60674 828-1132): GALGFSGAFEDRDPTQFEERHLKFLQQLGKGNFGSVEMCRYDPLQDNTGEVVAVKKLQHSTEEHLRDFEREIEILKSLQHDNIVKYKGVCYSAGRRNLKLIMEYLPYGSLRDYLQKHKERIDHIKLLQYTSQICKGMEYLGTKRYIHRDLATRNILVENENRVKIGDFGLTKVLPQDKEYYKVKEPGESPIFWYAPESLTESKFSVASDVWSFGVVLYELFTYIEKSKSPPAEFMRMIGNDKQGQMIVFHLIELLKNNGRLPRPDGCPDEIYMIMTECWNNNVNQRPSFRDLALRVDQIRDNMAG
T4 sequence (P23458 849-1154): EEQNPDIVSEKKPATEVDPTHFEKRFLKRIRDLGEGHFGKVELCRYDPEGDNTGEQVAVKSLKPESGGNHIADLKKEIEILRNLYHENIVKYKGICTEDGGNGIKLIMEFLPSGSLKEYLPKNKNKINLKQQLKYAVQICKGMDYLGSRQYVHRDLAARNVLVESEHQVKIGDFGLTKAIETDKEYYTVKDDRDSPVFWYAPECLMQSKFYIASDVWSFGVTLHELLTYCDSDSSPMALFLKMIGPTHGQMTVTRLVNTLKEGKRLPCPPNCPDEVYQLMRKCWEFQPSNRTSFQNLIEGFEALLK
Sequence of TYK2 (P29597 whole entry): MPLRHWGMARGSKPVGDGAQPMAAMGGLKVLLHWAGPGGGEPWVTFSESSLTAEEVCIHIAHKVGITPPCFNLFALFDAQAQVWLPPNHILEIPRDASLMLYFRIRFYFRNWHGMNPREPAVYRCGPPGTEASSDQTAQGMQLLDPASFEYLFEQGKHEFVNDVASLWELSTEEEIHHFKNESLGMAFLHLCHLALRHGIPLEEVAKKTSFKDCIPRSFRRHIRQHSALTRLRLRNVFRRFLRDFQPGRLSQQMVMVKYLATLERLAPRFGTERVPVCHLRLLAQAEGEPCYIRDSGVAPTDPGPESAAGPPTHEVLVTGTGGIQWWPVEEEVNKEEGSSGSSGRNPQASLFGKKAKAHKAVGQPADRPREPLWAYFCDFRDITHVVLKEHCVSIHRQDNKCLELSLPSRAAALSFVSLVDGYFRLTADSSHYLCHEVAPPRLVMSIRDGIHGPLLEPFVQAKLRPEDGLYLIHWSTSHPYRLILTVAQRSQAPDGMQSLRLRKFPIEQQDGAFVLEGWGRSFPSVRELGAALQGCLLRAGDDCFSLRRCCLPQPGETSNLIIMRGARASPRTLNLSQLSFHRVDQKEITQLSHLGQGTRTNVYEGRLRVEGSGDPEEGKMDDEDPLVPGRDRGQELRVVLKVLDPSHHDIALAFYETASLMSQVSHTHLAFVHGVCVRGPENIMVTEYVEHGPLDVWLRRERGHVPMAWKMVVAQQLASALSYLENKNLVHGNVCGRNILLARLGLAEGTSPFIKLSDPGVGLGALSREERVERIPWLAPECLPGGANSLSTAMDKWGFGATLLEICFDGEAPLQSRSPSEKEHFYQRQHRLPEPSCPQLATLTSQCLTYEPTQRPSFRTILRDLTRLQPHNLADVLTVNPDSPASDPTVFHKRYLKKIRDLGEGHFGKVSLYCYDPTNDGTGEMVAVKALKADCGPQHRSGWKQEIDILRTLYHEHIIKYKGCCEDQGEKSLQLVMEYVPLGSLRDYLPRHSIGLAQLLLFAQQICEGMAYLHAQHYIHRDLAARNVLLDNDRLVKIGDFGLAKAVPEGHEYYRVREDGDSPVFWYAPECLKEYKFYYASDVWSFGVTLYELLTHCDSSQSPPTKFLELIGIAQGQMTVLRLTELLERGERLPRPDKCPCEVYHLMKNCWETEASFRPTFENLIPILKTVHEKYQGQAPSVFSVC

Row | IC50 [1] [nM] | IC50 [2] [nM] | IC50 (TYK2) [nM] | IC50 [3] [nM] | IC50 [4] [nM] | ALK % of inhibition at a concentration of 500 nM or 1 mM [1] [%] | Structure (SMILES)
1 | 180 | 0.15 | 0.86 | 6.3 | 0.41 | – | Cc1ccc(S(=O)(=O)Nc2ccc3cc2CCc2cccc(c2)Nc2ncc(Cl)c(n2)N3)cc1 [Example B150, N-[6-Chloro-2,4,8,22-tetraazatetracyclo[14.3.1.1(3,7).1(9,13)]docosa-1(20), 3(22),4,6,9(21),10,12,16,18-nonaen-12-yl]-4-methylbenzenesulfonamide trifluoroacetate]
2 | 430 | 0.14 | 0.5 | 11 | 0.35 | – | Cc1noc(C)c1S(=O)(=O)Nc1ccc2cc1CCc1cccc(c1)Nc1ncc(Cl)c(n1)N2 [Example B152, N-[6-Chloro-2,4,8,22-tetraazatetracyclo[14.3.1.1(3,7).1(9,13)]docosa-1(20),3(22),4,6,9(21),10,12,16,18-nonaen-12-yl]-3,5-dimethylisoxazole-4-sulfonamide trifluoroacetate]
3 | 70 | 0.1 | 0.44 | 0.48 | 0.69 | – | N#Cc1cccc(S(=O)(=O)Nc2ccc3cc2CCc2cccc(c2)Nc2ncc(Cl)c(n2)N3)c1 [Example B153, N-[6-Chloro-2,4,8,22-tetraazatetracyclo[14.3.1.1(3,7).1(9,13)]docosa-1(20),3(22),4,6,9(21),10,12,16,18-nonaen-12-yl]-3-cyanobenzenesulfonamide trifluoroacetate]
4 | 280 | 0.1 | 0.83 | 5.3 | 0.6 | – | N#Cc1ccc(S(=O)(=O)Nc2ccc3cc2CCc2cccc(c2)Nc2ncc(Cl)c(n2)N3)cc1 [Example B154, N-[6-Chloro-2,4,8,22-tetraazatetracyclo[14.3.1.1(3,7).1(9,13)]docosa-1(20), 3(22),4,6,9(21),10,12,16,18-nonaen-12-yl]-4-cyanobenzenesulfonamide trifluoroacetate]
5 | > 1000 | 2.4 | 2.2 | 40 | 1.3 | – | N#Cc1ccccc1S(=O)(=O)Nc1ccc2cc1CCc1cccc(c1)Nc1ncc(Cl)c(n1)N2 [Example B155, N-[6-Chloro-2,4,8,22-tetraazatetracyclo[14.3.1.1(3,7).1(9,13)]docosa-1(20), 3(22),4,6,9(21),10,12,16,18-nonaen-12-yl]-2-cyanobenzenesulfonamide trifluoroacetate]
6 | – | 1.5 | 2.7 | 17 | 0.75 | 28 | COc1ccc(S(=O)(=O)Nc2ccc3cc2CCc2cccc(c2)Nc2ncc(Cl)c(n2)N3)cc1 [Example B156, N-[6-Chloro-2,4,8,22-tetraazatetracyclo[14.3.1.1(3,7).1(9,13)]docosa-1(20), 3(22),4,6,9(21),10,12,16,18-nonaen-12-yl]-4-methoxybenzenesulfonamide trifluoroacetate]
7 | – | 0.15 | 0.62 | 0.3 | 0.51 | 87 | COc1cccc(S(=O)(=O)Nc2ccc3cc2CCc2cccc(c2)Nc2ncc(Cl)c(n2)N3)c1 [Example B157, N-[6-Chloro-2,4,8,22-tetraazatetracyclo[14.3.1.1(3,7).1(9,13)]docosa-1(20), 3(22),4,6,9(21),10,12,16,18-nonaen-12-yl]-3-methoxybenzenesulfonamide trifluoroacetate]
8 | – | 0.15 | 0.49 | 0.64 | 0.15 | 71 | O=S(=O)(Nc1ccc2cc1CCc1cccc(c1)Nc1ncc(Cl)c(n1)N2)C1CC1 [Example B158, N-[6-Chloro-2,4,8,22-tetraazatetracyclo[14.3.1.1(3,7).1(9,13)]docosa-1(20), 3(22),4,6,9(21),10,12,16,18-nonaen-12-yl]cyclopropanesulfonamide trifluoroacetate]
9 | – | 0.46 | 1.6 | 3.1 | 1.3 | 82 | O=C(O)c1cccc(S(=O)(=O)Nc2ccc3cc2CCc2cccc(c2)Nc2ncc(Cl)c(n2)N3)c1 [Example B159, 3-({[6-Chloro-2,4,8,22-tetraazatetracyclo[14.3.1.1(3,7).1(9,13)]docosa-1(20),3(22),4,6,9(21),10,12,16,18-nonaen-12-yl]amino}sulfonyl)benzoic acid trifluoroacetate]
10 | – | 6.4 | 2.4 | 102 | 12 | 4.6 | O=S(=O)(Nc1ccc2cc1CCc1cccc(c1)Nc1ncc(Cl)c(n1)N2)c1cccc2cccnc12 [Example B160, N-[6-Chloro-2,4,8,22-tetraazatetracyclo[14.3.1.1(3,7).1(9,13)]docosa-1(20), 3(22),4,6,9(21),10,12,16,18-nonaen-12-yl]quinoline-8-sulfonamide bis(trifluoroacetate)]
11 | – | 1.1 | 2.6 | 8.5 | 1.6 | 58 | CC(=O)Nc1ccc(S(=O)(=O)Nc2ccc3cc2CCc2cccc(c2)Nc2ncc(Cl)c(n2)N3)cc1 [Example B161, N-[4-({[6-Chloro-2,4,8,22-tetraazatetracyclo[14.3.1.1(3,7).1(9,13)]docosa-1(20),3(22),4,6,9(21),10,12,16,18-nonaen-12-yl]amino}sulfonyl)phenyl]acetamide trifluoroacetate]
12 | – | 2.7 | 4.3 | 26 | 1.7 | 16 | O=S(=O)(Nc1ccc2cc1CCc1cccc(c1)Nc1ncc(Cl)c(n1)N2)c1ccc(C(F)(F)F)cc1 [Example B162, N-[6-Chloro-2,4,8,22-tetraazatetracyclo[14.3.1.1(3,7).1(9,13)]docosa-1(20), 3(22),4,6,9(21),10,12,16,18-nonaen-12-yl]-4-(trifluoromethyl)benzenesulfonamide trifluoroacetate]
13 | – | 0.24 | 0.97 | 1.1 | 0.54 | 80 | O=S(=O)(Nc1ccc2cc1CCc1cccc(c1)Nc1ncc(Cl)c(n1)N2)c1cccc(C(F)(F)F)c1 [Example B163, N-[6-Chloro-2,4,8,22-tetraazatetracyclo[14.3.1.1(3,7).1(9,13)]docosa-1(20), 3(22),4,6,9(21),10,12,16,18-nonaen-12-yl]-3-(trifluoromethyl)benzenesulfonamide trifluoroacetate]
14 | – | 10 | 20 | 83 | 13 | 10 | CN1CCOc2cc(S(=O)(=O)Nc3ccc4cc3CCc3cccc(c3)Nc3ncc(Cl)c(n3)N4)ccc21 [Example B165, N-[6-Chloro-2,4,8,22-tetraazatetracyclo[14.3.1.1(3,7).1(9,13)]docosa-1(20),3(22),4,6,9(21),10,12,16,18-nonaen-12-yl]-4-methyl-3,4-dihydro-2H-1,4-benzoxazine-7-sulfonamide trifluoroacetate]
15 | – | 7.4 | 17 | 39 | 3.6 | 15 | CC(C)(C)OC(=O)N1CC[C@H](NC(=O)Nc2ccc3cc2CCc2cccc(c2)Nc2ncc(Cl)c(n2)N3)C1 [Example B166, tert-Butyl (3S)-3-[({[6-chloro-2,4,8,22-tetraazatetracyclo[14.3.1.1(3,7).1(9,13)]docosa-1(20),3(22),4,6,9(21),10,12,16,18-nonaen-12-yl]amino}carbonyl)amino]pyrrolidine-1-carboxylate]
16 | – | 12 | 30 | 43 | 3.7 | 17 | O=C(Nc1ccc2cc1CCc1cccc(c1)Nc1ncc(Cl)c(n1)N2)N[C@H]1CCNC1 [Example B167, N-[6-Chloro-2,4,8,22-tetraazatetracyclo[14.3.1.1(3,7).1(9,13)]docosa-1(20),3(22),4,6,9(21),10,12,16,18-nonaen-12-yl]-N′-[(3S)-pyrrolidin-3-yl]urea bis(trifluoroacetate)]
17 | – | 12 | 17 | 67 | 2.8 | 21 | CC(=O)N1CC[C@H](NC(=O)Nc2ccc3cc2CCc2cccc(c2)Nc2ncc(Cl)c(n2)N3)C1 [Example B168, N-[(3S)-1-Acetylpyrrolidin-3-yl]-N′-[6-chloro-2,4,8,22-tetraazatetracyclo[14.3.1.1(3,7).1(9,13)]docosa-1(20),3(22),4,6,9(21),10,12,16,18-nonaen-12-yl]urea trifluoroacetate]
